Assay results reported in patent publication US20080085939A1, “Use Of Sphingolipids For Prevention And Treatment Of Atherosclerosis” (priority 2004, published 2008).

Columns and labels:
Type in all cases: cell-based
Jurkat cells (T-cells) = test: Cell proliferation/viability of Jurkat cells, Alamar Blue test; conditions: exposure to sphingolipids
Description: (§1) Jurkat cells (T-cells) stably transfected with pNFAT-luc (Clontech, BD Bioscience, Becton, Dickinson and Company, Franklin Lakes, N.J. USA) in which the hygromycin resistance gene was cloned were used. The cells produce the enzyme luciferase under control of the NFAT (nuclear Factor of Activated T cells) promoter. The NFAT-mediated pathways are stimulated in Jurkat cells by PMA and ionomycin. Cells were grown at 37° C. at 5% (v/v) CO2 and 100% relative humidity in medium consisting of RPMI 1640, 10 mM HEPES (N-[2-hydroxyethyl]piperazine-N′-[2-ethanesulfonic acid), 10% FCS, 2 mM L-Glutamine and 1 mM Sodium Pyruvate. The medium was changed every 3 days. Finally the cells were transferred to 96-wells plates.
Because sphingolipids can be cytotoxic to cells, the viability of the cells after exposure to the sphingolipids was checked with the Alamar Blue™ (Biosource) test. Almar blue™ (20 μL) and sphingolipids were added simultaneously. The Fluorescence (excitation at 540 nm and emission at 570 nm) was measured in a Wallac 1420 Victor^2 multilabel counter (Perkin Elmer Wellesley, Mass., USA).

[1] = test system: NFAT-mediated signal transduction pathway in Jurkat cells (T-cells); test: PMA/ionomycin-induced stimulation of Jurkat cells, NFAT-luciferase reporter; conditions: 10 μg/mL sphingolipid; Jurkat pNFAT-luc; PMA 50 ng/ml and ionomycin 1 μg/ml, 6 hours; FIG. 2
Description: as §1
A cell suspension of 5×10^5 cells/ml in medium without phenol red was transferred to 96 well microtiter plates (200 μL/well). In triplicate sphingolipids were added (1 or 10 μg/mL). After 30 min PMA (50 ng/ml) and ionomycin (1 μg/ml) was added and the cells were incubated during 6 hours. Then 60 μl cell suspension was mixed with 60 μl steady glo reagent (Promega). Luminescence was measured in a Wallac 1450 microbeta liquid scintillation counter.

[2] = test system: LPS-induced TNFα release by macrophage U937 cells; test: Effect of sphingolipids on LPS-induced TNFα release by macrophage U937 cells; conditions: differentiated U937 cells; 1 μg/ml or 10 μg/ml sphingolipid for 30 min, then LPS 1 μg/ml for 4 hours; FIG. 1
Description: Undifferentiated U937 cells were grown at 37° C. at 5% (v/v) CO2 and 100% relative humidity in medium consisting of RPMI 1640, and supplemented with 10% Fetal Calf Serum (FCS), 2 mM L-Glutamine, 50 μg/ml Gentamycin and 0.4% Fungizone. The cells were passaged every three days. Finally the cells were transferred to 96-wells microtiter plates. Differentiation was induced by addition of 10 ng/ml PMA (Phorbol 12-myristate 13-acetate). After 24 hours the medium was changed and refreshed every day and the differentiated macrophages were grown for another 3 days at 37° C. The above described differentiated U937 cells were treated for 30 min with 1 μg/ml or 10 μg/ml sphingolipid (1 mg/mL in ethanol). Then the cells were stimulated with LPS (1 μg/ml) for a period of 4 hours. The TNFα release was measured with the TNF-α cytoset™ from Biosource International, Camarillo, Calif., USA.

Structure (SMILES) | cell viability of Jurkat cells (Alamar Blue fluorescence) (Jurkat cells (T-cells)) | PMA/ionomycin-induced activation of the NFAT-mediated signal transduction pathway (luciferase activity) [1] | release of TNFα by LPS-stimulated macrophages [2]
CCCCCCCCCCCCCCC[C@@H](O)[C@@H](N)CO [sphinganine] | No differences | completely suppressed | strongly reduced
CCCCCCCCCCCCC/C=C/[C@@H](O)[C@@H](N)CO [sphingosine] | No differences | completely suppressed | strongly reduced
CCCCCCCCCCCCCC[C@@H](O)[C@@H](O)[C@@H](N)CO [phytosphingosine] | No differences | completely suppressed | strongly reduced
